Where “and” joins values, the source holds several entries; their conditions need not be identical. Equal entries are not always repeated.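 Each compound was tested at five concentrations against cells in 96-well plates for 48 hours. The concentration for 50% growth inhibition is given as GI50. The concentration for full growth arrest is given as TGI.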
Experiments:
Test in all cases: NCI anticancer screen, dose series, 48 h
[1] = tested on: CCRF-CEM leukemia
[2] = tested on: COLO 205 colon
[3] = tested on: K-562 leukemia
[4] = tested on: MOLT-4 leukemia
[5] = tested on: NCI-H226 lung
[6] = tested on: NCI-H23 lung
[7] = tested on: SK-MEL-28 melanoma
[8] = tested on: SNB-19 CNS
[9] = tested on: SR leukemia
[10] = tested on: SW-620 colon

Row | Structure (SMILES) | GI50 [1] [µM] | TGI [1] | GI50 [2] | TGI [2] [µM] | GI50 [3] | TGI [3] [µM] | GI50 [4] [µM] | TGI [4] [µM] | GI50 [5] | TGI [5] | GI50 [6] | TGI [6] | GI50 [7] | TGI [7] | GI50 [8] | TGI [8] | GI50 [9] [µM] | TGI [9] [µM] | GI50 [10] | TGI [10]
1 | COc1ccc(/C=C/C(=O)c2ccc(Nc3nc(Nc4ccc(F)cc4)nc(Nc4ccc(Cl)cc4)n3)cc2)cc1 | 37.4 | > 100 µM | 24.2 µM | > 100 | 15.4 µM | > 100 | 11.9 | > 100 | > 100 µM | > 100 µM | > 100 µM | > 100 µM | > 100 µM | > 100 µM | > 100 µM | > 100 µM | 4.68 | 38.2 | > 100 µM | > 100 µM
2 | O=c1c(O)cc2c(O)oc3c(=O)c(O)c(O)c4c(O)oc1c2c43 |  | > 100 µM |  | > 100 |  | 57.9 |  | 72.2 |  | > 100 µM |  | > 100 µM |  | > 100 µM |  | > 100 µM |  | > 100 |  | > 100 µM
3 | O=C([O-])CCc1ccccc1.O=C([O-])CCc1ccccc1.O=C([O-])CCc1ccccc1.O=C([O-])CCc1ccccc1.[Mo+2].[Mo+2] | > 100 | > 100 µM | > 100 µM | > 100 | > 100 µM | > 100 | > 100 | > 100 | > 100 µM | > 100 µM | > 100 µM | > 100 µM | > 100 µM | > 100 µM | > 100 µM | > 100 µM | > 100 | > 100 | > 100 µM | > 100 µM
4 | OCCCc1cnco1 |  | > 100 µM |  | > 100 |  | > 100 |  | > 100 |  | > 100 µM |  | > 100 µM |  | > 100 µM |  | > 100 µM |  | > 100 |  | > 100 µM
5 | O=C(/C=C/c1cccc(S(=O)(=O)Nc2ccccc2)c1)NO |  | 58.2 µM and > 100 µM | 0.353 µM and 0.118 µM |  | 0.325 µM and 0.0593 µM | > 100 |  | > 29.9 | 2.34 µM and 0.694 µM | 11.5 µM and 5.11 µM | 0.707 µM and 0.112 µM | 7.47 µM and 2.69 µM | 1 µM and 1.55 µM | 10.3 µM and 51.8 µM | 0.841 µM and 0.835 µM | 19.5 µM and 41.5 µM |  | 22.8 | 0.227 µM and 0.0308 µM | 9.27 µM and > 47.1 µM
6 | CCCCCCc1cc2cc(-c3csc(/C=C/c4ccccc4)n3)c(=O)oc2cc1O | 4.2 | 15 µM | > 100 µM | > 100 | 6.13 µM | 80.3 | 3.72 | 15.1 | 15.2 µM | 33.4 µM | 3.09 µM | 10.1 µM | 10.6 µM | 24.9 µM | 10.3 µM | 34.3 µM | 2.88 | 9.69 | 5.6 µM | 20.7 µM
7 | NC(=S)N/N=C(\CCC(=O)Nc1ccccc1[N+](=O)[O-])CC(=O)c1ccco1 |  | > 100 µM |  | > 100 |  | > 100 |  | > 100 |  | > 100 µM |  | > 100 µM |  | > 100 µM |  | > 100 µM |  | > 100 |  | > 100 µM
8 | O=C(c1cccs1)c1nc2cc(Cl)ccc2[n+]([O-])c1C(F)(F)F | > 100 | > 100 µM | > 100 µM | > 100 | > 100 µM | > 100 | 70.1 | > 100 | > 100 µM | > 100 µM | > 100 µM | > 100 µM | > 100 µM | > 100 µM | > 100 µM | > 100 µM | 35.4 | > 100 | > 100 µM | > 100 µM
9 | CCN1C(=O)N(CC)C2C1NC(=S)N2/N=C/C=C/c1ccccc1OC (stereo not given) | 0.0373 | > 100 µM | 0.0315 µM | 0.7 | 0.0276 µM | > 100 | 0.0427 | > 100 | 0.0458 µM | > 100 µM | 0.0412 µM | > 100 µM | 16.1 µM | > 100 µM | 0.0482 µM | > 100 µM | 0.0387 | > 100 | 0.0475 µM | > 100 µM
10 | O=C1/C(=C\c2ccccc2)CN(C(=O)c2ccccc2)C/C1=C\c1ccccc1 | 1.43 | 6.49 µM | 2.72 µM | 7.01 | 1.67 µM | > 100 | 3.19 | 43.6 | 19.3 µM | > 100 µM | 3.62 µM | 12.4 µM | 1.82 µM | 3.47 µM | 3.79 µM | 15.1 µM | 0.335 | 2.9 | 1.47 µM | 3.04 µM
11 | CCCCN(CCCC)CC(C(=O)Nc1ccc([N+](=O)[O-])cc1[N+](=O)[O-])/C(C)=N\NC(=O)C[N+](C)(C)C (stereo not given) |  | > 100 µM |  | > 100 |  | > 100 |  | > 100 |  | > 100 µM |  | > 100 µM |  | > 100 µM |  | > 100 µM |  | 49.7 |  | 

— PubChem BioAssay (NCI)
